Values quoted from earlier work as cited in patent publication US10927398B2, “Compositions for CYP450 phenotyping using saliva samples” (Concordia University, Inc., priority 2015, dated 2021).
Like-named read-outs stand apart in the source and are kept apart here.

Tests used:
[1] = cited from earlier work
[2] = cited from earlier work; remark: listed apart in the source
plasma protein = settings: cited from earlier work
[3] = Table of Exemplary Drugs, CYP3A4
[4] = Table of Exemplary Drugs, CYP2C19
[5] = Table of Exemplary Drugs, CYP2D6
[6] = Table of Exemplary Drugs, CYP2C9
[7] = Table of Exemplary Drugs, CYP1A2

SMILES: C[C@]12C=CC(=O)N[C@@H]1CC[C@@H]1[C@@H]2CC[C@]2(C)[C@@H](C(=O)Nc3cc(C(F)(F)F)ccc3C(F)(F)F)CC[C@@H]12 [Dutasteride (Avodart), Dutasteride]
- HALF-LIFE [1, 3]: 5 weeks
- ORAL BIOAVAILABILITY [2, 3]: 60%
- PLASMA PROTEIN BINDING (plasma protein; [3]): 99%

SMILES: COC(=O)[C@H](c1ccccc1Cl)N1CCc2sccc2C1 [Clopidogrel]
- HALF-LIFE [1, 3]: 6 h
- ORAL BIOAVAILABILITY [2, 4]: >50%
- ORAL BIOAVAILABILITY [2, 3]: >50%
- PLASMA PROTEIN BINDING (plasma protein; [4]): 98%
- PLASMA PROTEIN BINDING (plasma protein; [3]): 94-98% ^

SMILES: CNCC[C@@H](Oc1ccccc1C)c1ccccc1 [Atomoxetine]
- HALF-LIFE [1, 5]: 5.2 h
- ORAL BIOAVAILABILITY [2, 5]: 63%
- PLASMA PROTEIN BINDING (plasma protein; [5]): 98%

SMILES: C=C1C[C@@H]2[C@H](CC[C@]3(C)C(=O)CC[C@@H]23)[C@@]2(C)C=CC(=O)C=C12 [Exemestane (Aromasin), Exemestane]
- HALF-LIFE [1, 3]: 24 h
- ORAL BIOAVAILABILITY [2, 3]: 42%
- PLASMA PROTEIN BINDING (plasma protein; [3]): 90%

SMILES: COc1ccccc1Oc1c(NS(=O)(=O)c2ccc(C(C)(C)C)cc2)nc(-c2ncccn2)nc1OCCO [Basentan (Tracleer), Basentan]
- HALF-LIFE [1, 3]: 5 h
- ORAL BIOAVAILABILITY [2, 3]: 50%
- PLASMA PROTEIN BINDING (plasma protein; [3]): 98%

SMILES: Fc1ccccc1C1=NCC(=S)N(CC(F)(F)F)c2ccc(Cl)cc21 [Quazepam (Doral), Quazepam]
- HALF-LIFE [1, 3]: 25 to 41 h
- ORAL BIOAVAILABILITY [2, 3]: 29-35%
- PLASMA PROTEIN BINDING (plasma protein; [3]): >95%

SMILES: O=C1Nc2ccc(Cl)cc2[C@@](C#CC2CC2)(C(F)(F)F)O1 [Efavir enz (Sustiva), Efavir enz]
- HALF-LIFE [1, 3]: 40 to 55 h
- ORAL BIOAVAILABILITY [2, 3]: 40-45%
- PLASMA PROTEIN BINDING (plasma protein; [3]): 99.5-99.75% ^

SMILES: CCc1ccc(CCOc2ccc(CC3SC(=O)NC3=O)cc2)nc1 (stereo not drawn) [Pioglitazone]
- HALF-LIFE [1, 3]: 3 to 7 h
- ORAL BIOAVAILABILITY [2, 3]: 50%
- PLASMA PROTEIN BINDING (plasma protein; [3]): >99%

SMILES: CO[C@H]1C[C@@H]2CC[C@@H](C)[C@@](O)(O2)C(=O)C(=O)N2CCCC[C@H]2C(=O)O[C@H]([C@H](C)C[C@@H]2CC[C@@H](O)[C@H](OC)C2)CC(=O)[C@H](C)/C=C(\C)[C@@H](O)[C@@H](OC)C(=O)[C@H](C)C[C@H](C)/C=C/C=C/C=C/1C [Sirolimus (Rapamune), Sirolimus]
- HALF-LIFE [1, 3]: 61.3 to 72.3 h
- ORAL BIOAVAILABILITY [2, 3]: 14-27%
- PLASMA PROTEIN BINDING (plasma protein; [3]): 92%

SMILES: COc1ccc2c3c1O[C@H]1[C@@H](O)C=C[C@H]4[C@@H](C2)N(C)CC[C@@]341 [Codeine]
- HALF-LIFE ([1]; in vivo): 2.5 to 3 h
- ORAL BIOAVAILABILITY ([2]; in vivo, po): 90%
- PLASMA PROTEIN BINDING (plasma protein; [5]): 7-25%^

SMILES: COC(=O)C1=C(C)NC(C)=C(C(=O)OC(C)C)C1c1cccc2nonc12 (stereo not drawn) [Isradipine (DynaCirc), Isradipine]
- HALF-LIFE [1, 3]: 8 h
- ORAL BIOAVAILABILITY ([2]; cell marked CR, Table of Exemplary Drugs, CYP3A4): CR: 15-24%
- ORAL BIOAVAILABILITY ([2]; cell marked IR, Table of Exemplary Drugs, CYP3A4): IR 90-95%;
- PLASMA PROTEIN BINDING (plasma protein; [3]): 95%

SMILES: COc1ccc2c3c1O[C@H]1C(=O)CC[C@H]4[C@@H](C2)N(C)CC[C@]314 [Hydrocodone]
- HALF-LIFE ([1]; in vivo): 7 to 9 h
- ORAL BIOAVAILABILITY ([2]; in vivo, po): 25%
- PLASMA PROTEIN BINDING (plasma protein; [5]): 19-45% ^

SMILES: CCC1(c2ccccc2)C(=O)NC(=O)N(C)C1=O (stereo not drawn) [Methylphenobarbital]
- HALF-LIFE ([1]; in vivo): 31 to 67 h
- ORAL BIOAVAILABILITY ([2]; in vivo, po): 50%
- PLASMA PROTEIN BINDING (plasma protein; plasma): 70-76% ^

SMILES: COCCc1ccc(OCC(O)CNC(C)C)cc1 (stereo not drawn) [Metoprolol]
- HALF-LIFE [1, 5]: 3 to 7 h
- ORAL BIOAVAILABILITY [2, 5]: 77%
- PLASMA PROTEIN BINDING (plasma protein; [5]): 12%

SMILES: O=C1NC(=O)C(c2ccccc2)(c2ccccc2)N1 [Phenytoin]
- HALF-LIFE [1, 6]: 14 to 22 h
- HALF-LIFE [1, 4]: 14 to 22 h
- ORAL BIOAVAILABILITY [2, 6]: 20-90%
- ORAL BIOAVAILABILITY [2, 4]: 20-90%
- PLASMA PROTEIN BINDING (plasma protein; [6]): 88-93% ^
- PLASMA PROTEIN BINDING (plasma protein; [4]): 88-93% ^

SMILES: CCC(=O)O[C@](Cc1ccccc1)(c1ccccc1)[C@H](C)CN(C)C [Propoxyphene (Darvon), Propoxyphene]
- HALF-LIFE [1, 3]: 6 to 12 h
- ORAL BIOAVAILABILITY [2, 3]: 40%
- PLASMA PROTEIN BINDING (plasma protein; [3]): 78%

SMILES: CN1C[C@H](C(=O)N[C@]2(C)O[C@@]3(O)[C@@H]4CCCN4C(=O)[C@H](Cc4ccccc4)N3C2=O)C[C@@H]2c3cccc4[nH]cc(c34)C[C@H]21 [Dihydroergotamine]
- HALF-LIFE ([1]; in vivo): 9 to 10 h
- ORAL BIOAVAILABILITY ([2]; in vivo, po): <32%
- PLASMA PROTEIN BINDING (plasma protein; plasma): 93%

SMILES: [H]/N=C(/N)N/C(=N/[H])NCCc1ccccc1 [Phenformin]
- HALF-LIFE [1, 5]: 4 to 13 h
- ORAL BIOAVAILABILITY [2, 5]: 40-60%
- PLASMA PROTEIN BINDING (plasma protein; [5]): 12-20% ^

SMILES: C#C[C@]1(O)CC[C@H]2[C@@H]3CCc4cc(O)ccc4[C@H]3CC[C@@]21C [Ethinyl Estradiol]
- HALF-LIFE [1, 3]: 7 to 36 h
- ORAL BIOAVAILABILITY [2, 3]: 38-48%
- PLASMA PROTEIN BINDING (plasma protein; [3]): 97-98% ^

SMILES: CC(=O)[C@H]1CC[C@H]2[C@@H]3CCC4=CC(=O)CC[C@]4(C)[C@H]3CC[C@]12C [Progesterone]
- HALF-LIFE ([1]; cell marked PV, Table of Exemplary Drugs, CYP2C19): PV: 5-20 min
- ORAL BIOAVAILABILITY [2, 4]: 10-15%
- PLASMA PROTEIN BINDING (plasma protein; [4]): 95-99% ^

SMILES: Cc1cccc(C)c1OCC(C)N (stereo not drawn) [Mexiletine]
- HALF-LIFE [1, 7]: 10 to 12 h
- HALF-LIFE [1, 5]: 6 to 17 h
- ORAL BIOAVAILABILITY [2, 7]: 90%
- ORAL BIOAVAILABILITY [2, 5]: 80-90%
- PLASMA PROTEIN BINDING (plasma protein; [7]): 50-60% ^
- PLASMA PROTEIN BINDING (plasma protein; [5]): 50-70% ^
